“Also recorded” adds a separate entry of the source. Peptide text beside a SMILES is read from it.
Assays:
[1] = in vivo; cited from earlier work
[2] = system: male runners; experiment: Dynavision D2 MODE A reaction test (hits and time per hit in 60 s); assay type: in vivo, human; parameters: Mode A Avg Δ (average time per hit), group mean: unit not given here; conditions: for Mode A Avg Δ (average time per hit), group mean / Mode A Hits Δ, group mean: Post-Pre
Description: The testing protocol is depicted in FIG. 1. Data collection occurred on four separate occasions. Each session required participants to perform a 60-min run at 75% of their previously measured VO2max. Following this run, all participants performed a run at 90% of their VO2max until volitional exhaustion. All participants performed their first trial (DHY) without any rehydration. During this session the total weight lost during the trial was determined. The fluid loss that occurred during this session was then used to determine the participant's swear rate (L·hr^−1). To continue in the study, participant's sweat rate was or exceeded 1.3 L·hr^−1. During the next three trails participants were provided 250 ml of fluid every 15 minutes in equal amounts. During one of the trials participants consumed only a flavored sports drink (ELECT only), while during the other trials participants consumed the alanine-glutamine supplement (Sustamine™) mixed in the same flavored sports drink at either a low (LD: 300 mg per 500 ml) or high (HD: 1 g per 500 ml) dose. Measurement of upper body reaction time was performed on the Dynavision D2 Visuomotor Training Device (D2; Dynavision International LLC, West Chester, Ohio). The D2 is a light training reaction device, developed to train sensory motor integration through the visual system. It consists of a board (4 foot×4 foot) that can be raised or lowered relative to the height of the operator. It contains 64 target buttons arranged into five concentric circles surrounding a center screen that can be illuminated to serve as a stimulus for the participant. Participants were required to assume a comfortable athletic stance and stand at a distance from the board where they could easily reach all of the lights. The board height was adjusted so the LCD screen was located just below eye level. A total of three different reaction tests were conducted. Participants were instructed to fixate their gaze on the LCD screen in the middle of the board and to keep their focus there for the entirety of the experiment. The second assessment (MODE A) measured the participant's ability to react to a stimulus as it changed positions on the board. An initial stimulus will present on the D2 in a 6 random location. The stimulus remained lit until it was struck by the participant. The stimulus then appeared at another random location. The participant was instructed to identify and strike as many stimuli as possible within 60 s. The number of hits and the average time per hits were recorded for each participant. Additionally, to make inferences on true effects of the different trials on reaction performance, an analysis based on the magnitude of differences, calculated from 90% confidence intervals, as previously described by Batterham and Hopkins (2005), was used in this study. Differences in Post-Pre performance (Δresponse) between trials were analyzed via a published spreadsheet (Hopkins 2007), with the smallest non-trivial change set at 20% of the grand standard deviation (Batterham and Hopkins 2005). All data are expressed as a mean effect±SD, with percent chances of a beneficial, trivial or negative outcome. Qualitative inferences, based on quantitative chances were assessed as: <1% almost certainly not, 1-5% very unlikely, 5-25% unlikely, 25-75% possibly, 75-95% likely, 95-99% very likely and >99% almost certainly (Hopkins 2002).

## C[C@H](N)C(=O)N[C@@H](CCC(N)=O)C(=O)O [L-Alanyl-L-Glutamine] (H-Ala-Gln-OH)
[1]
  degradation in the body: immediately degraded into alanine and glutamine in the body
[2]; Dehydration vs High Dose
  Mode A Avg Δ, Interpretation: Possibly
  Mode A Avg Δ, Mean Difference: 0.025
  Mode A Avg Δ, Percent Negative: 2.83%
  Mode A Avg Δ, Percent Positive: 69.46%
  Mode A Avg Δ, Percent Trivial: 27.71%
  Mode A Hits Δ, Interpretation: possible negative effect; also recorded: Possibly
  Mode A Hits Δ, Mean Difference: −2.9
  Mode A Hits Δ, Percent Negative: 70.21%
  Mode A Hits Δ, Percent Positive: 2.09%
  Mode A Hits Δ, Percent Trivial: 27.70%
[2]; Dehydration vs Low Dose
  Mode A Avg Δ, Interpretation: Possibly
  Mode A Avg Δ, Mean Difference: 0.02
  Mode A Avg Δ, Percent Negative: 2.61%
  Mode A Avg Δ, Percent Positive: 61.93%
  Mode A Avg Δ, Percent Trivial: 35.45%
  Mode A Hits Δ, Interpretation: possible negative effect; also recorded: Possibly
  Mode A Hits Δ, Mean Difference: −2.2
  Mode A Hits Δ, Percent Negative: 57.68%
  Mode A Hits Δ, Percent Positive: 3.88%
  Mode A Hits Δ, Percent Trivial: 38.43%
[2]; Gatorade vs High Dose
  Mode A Avg Δ, Interpretation: Possibly
  Mode A Avg Δ, Mean Difference: 0.023
  Mode A Avg Δ, Percent Negative: 2.17%
  Mode A Avg Δ, Percent Positive: 67.69%
  Mode A Avg Δ, Percent Trivial: 30.14%
  Mode A Hits Δ, Interpretation: possibly negative
  Mode A Hits Δ, Mean Difference: 2.7
  Mode A Hits Δ, Percent Negative: 65.88%
  Mode A Hits Δ, Percent Positive: 2.87%
  Mode A Hits Δ, Percent Trivial: 31.25%
[2]; HD and LD compared to DHY and ELECT only
  speed per hit, MODE A: not statistically different
[2]; HD and LD compared to DHY and ELECT only, not statistically significant
  improvements of successful hits, MODE A: 3-4 fold
[2]; High Dose (1 g per 500 ml)
  Mode A Avg Δ (average time per hit), group mean: −0.028
  Mode A Hits Δ, group mean: 3.67
[2]; Low Dose (300 mg per 500 ml)
  Mode A Avg Δ (average time per hit), group mean: −0.023
  Mode A Hits Δ, group mean: 2.92
[2]; Low Dose vs Gatorade
  Mode A Avg Δ, Interpretation: Unclear
  Mode A Avg Δ, Mean Difference: −0.018
  Mode A Avg Δ, Percent Negative: 50.55%
  Mode A Avg Δ, Percent Positive: 44.41%
  Mode A Avg Δ, Percent Trivial: 5.04%
  Mode A Hits Δ, Interpretation: Unclear
  Mode A Hits Δ, Mean Difference: 1.9
  Mode A Hits Δ, Percent Negative: 42.26%
  Mode A Hits Δ, Percent Positive: 50.35%
  Mode A Hits Δ, Percent Trivial: 7.39%
[2]; Low Dose vs High Dose
  Mode A Avg Δ, Interpretation: Very Likely
  Mode A Avg Δ, Mean Difference: 0.005
  Mode A Avg Δ, Percent Negative: 0.02%
  Mode A Avg Δ, Percent Positive: 2.51%
  Mode A Avg Δ, Percent Trivial: 97.47%
  Mode A Hits Δ, Interpretation: Likely
  Mode A Hits Δ, Mean Difference: −0.75
  Mode A Hits Δ, Percent Negative: 9.11%
  Mode A Hits Δ, Percent Positive: 0.11%
  Mode A Hits Δ, Percent Trivial: 90.77%

Source: patent publication US10369185B2, “Methods and compositions for enhancement of ability to concentrate” (KYOWA HAKKO BIO CO., LTD., priority 2014, dated 2019)
